One series addresses T1, human orexin 2 receptor (Homo sapiens, UniProt O43614).
T1 construct: stably expressing the full-length human orexin 2 receptor; expressed in transfected cells; host or cells: CHO-K1 (CHO-K1/hOX2), co-expressing aequorin
T1 sequence (O43614 1-444): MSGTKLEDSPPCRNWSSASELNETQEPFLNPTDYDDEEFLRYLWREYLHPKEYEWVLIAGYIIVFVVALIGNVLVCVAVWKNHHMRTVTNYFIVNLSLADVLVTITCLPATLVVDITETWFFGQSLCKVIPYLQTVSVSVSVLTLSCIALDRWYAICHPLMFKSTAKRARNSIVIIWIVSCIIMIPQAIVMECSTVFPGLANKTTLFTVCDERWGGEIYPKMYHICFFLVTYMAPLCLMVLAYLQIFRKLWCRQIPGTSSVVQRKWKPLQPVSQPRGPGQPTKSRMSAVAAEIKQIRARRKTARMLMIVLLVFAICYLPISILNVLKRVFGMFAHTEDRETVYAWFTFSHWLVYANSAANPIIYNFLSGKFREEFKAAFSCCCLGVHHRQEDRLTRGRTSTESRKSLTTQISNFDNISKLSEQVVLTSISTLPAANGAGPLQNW
The experiment in a line: Assay B: In vitro testing of OX2R potency: OX2R IP1 (HTRF, CHO-K1/hOX2 cells, Orexin A as agonist). The class given is cell-based. To be noted: Orexin A 0.5 nM. The source says:
Activation of the orexin receptors expressed in cell lines results in an increase in intracellular IP3 concentration. IP1, a downstream metabolite of IP3, accumulates in cells following receptor activation and is stable in the presence of LiCl. Using Homogeneous Time-Resolved Fluorescence technology with Lumi4-Tb cryptate (commercially available from Cisbio Bioassay.) and a suitable fluorescence plate reader. […] Chem. Genomics 2009, 3, 22-32. This technique is used to characterize pharmacological modification of the orexin receptors.
B. In Vitro Testing of OX2R Potency: OX2R IP1
IP1 measurements are performed in CHO-K1 cells stably expressing the full-length human orexin 2 receptor and the aequorin photoprotein. Cells are cultivated in Ham's nutrient mixture F12 medium with 10% fetal calf serum, in a 37° C., 95% humidity and 5% CO2 incubator. The CHO-K1/hOX2 cell mass is expanded to larger cell numbers. The cells are obtained as frozen cells in cryo-vials and stored until use at −150° C. The viability of the cells after thawing is >90%. In preparation for the assay, 24 hours before the assay, the cells are thawed at 37° C. and immediately diluted with cell culture medium. After centrifugation, the cell pellet is resuspended in medium and then distributed into the assay plates with a density of 5000 cells/25 μL per well. The plates are incubated for one hour at room temperature to reduce edge effects before they are incubated for 24 hours at 37° C./5% CO2. Compounds are prepared by a 8-point serial dilution in DMSO and a final dilution step into assay buffer (HBSS with 20 mM HEPES, 0.1% BSA and 50 mM LiCl, pH 7.4) to ensure a final DMSO concentration of 1% in the assay.
On the day of the assay, cells in the plate are washed twice with 60 μL assay buffer (20 μL buffer remained in the wells after washing), followed by adding 5 μL per well of compounds diluted in assay buffer. After 15 minutes of incubation at room temperature 5 μL per well of Orexin A peptide (final concentration: 0.5 nM) dissolved in assay buffer is added to the assay plate. The assay plate is incubated for 60 minutes at 37° C. Then 5 μL per well of Anti-IP1-Cryptate Tb solution and 5 μL per well of IP1-d2 dilution are added to all well of the plate and the plate is incubated for a further 60 minutes light protected at room temperature. The emission at 615 nm and 665 nm (Excitation wavelength: 320 nm) are measured using an EnVision reader (PerkinElmer). The ratio between the emission at 665 nm and 615 is calculated by the reader.
8-point four parametric non-linear curve fitting and determination of IC50 values and Hill slopes is performed using a regular analysis software e.g. AssayExplorer (Accelrys). In order to establish an agonist concentration independent parameter, Kb values are calculated using the following equation: IC50/((2+(A/EC50)n)^1/n−1) (with A=concentration agonist, EC50=EC50 agonist, n=Hill slope agonist) (see P. Leff, I. G. Dougall, Trends Pharmacol. Sci. 1993, 14(4), 110-112).
Kb values from Assay A (OX1R) and Assay B (OX2R) can then provide a selectivity ratio which is independent of the agonist (Orexin A) concentration.
(In general: TR-FRET usually uses a lanthanide donor and a delayed reading to cut background.)
Consider `CCN(C(=O)c1cccc(C)c1-c1nnc(C)o1)[C@@H](C)COc1ccc(Cl)cn1` [Example 39], for which the Kb was determined as 82 nM.

As for `CCN(C(=O)c1cc(F)ccc1-n1nccn1)[C@@H](C)COc1ncc(C(F)(F)F)cc1F` [Example 51], the Kb was determined as 189 nM.

The molecule `CCN(C(=O)c1ccccc1-c1cnnc(C)c1)[C@@H](C)COc1ccc(C(F)(F)F)cn1` [Example 84] showed a Kb of 1290 nM.

Consider `CCN(C(=O)c1ccc(OC)cc1-c1ncccn1)[C@@H](C)COc1ccc(C(F)(F)F)cn1` [Example 118], for which the Kb is 92 nM.

In turn, `CCN(C(=O)c1cc(OC)ccc1-n1nccn1)[C@@H](C)COc1ccc(C(F)(F)F)cn1` [Example 15] returned a Kb of 15 nM.

The molecule `CCN(C(=O)c1cccc(F)c1-c1nnc(C)o1)[C@@H](C)COc1ncc(C(F)(F)F)cc1F` [Example 61] registered a Kb of 1480 nM.

With `CCN(C(=O)c1cccc(F)c1-c1nnc(C)o1)[C@@H](C)COc1ccc(Cl)cn1` [Example 36], the Kb worked out at 542 nM.

In turn, `CCN(C(=O)c1ccc(Cl)cc1-n1nccn1)[C@@H](C)COc1ccc(Cl)cn1` [Example 45] came in with a Kb of 21 nM.

As to `CCN(C(=O)c1cccc(Cl)c1-n1nccn1)[C@@H](C)COc1ccc(C(F)(F)F)cn1` [Example 90], the Kb was found to be 13 nM.

The next series deals with T2, human Orexin 1 receptor (Homo sapiens, UniProt O43613).
T2 construct: stably expressing the full-length human Orexin 1 receptor; expressed in transfected cells; host or cells: CHO-K1 (CHO-K1/hOX1), co-expressing aequorin
T2 sequence (O43613 1-425): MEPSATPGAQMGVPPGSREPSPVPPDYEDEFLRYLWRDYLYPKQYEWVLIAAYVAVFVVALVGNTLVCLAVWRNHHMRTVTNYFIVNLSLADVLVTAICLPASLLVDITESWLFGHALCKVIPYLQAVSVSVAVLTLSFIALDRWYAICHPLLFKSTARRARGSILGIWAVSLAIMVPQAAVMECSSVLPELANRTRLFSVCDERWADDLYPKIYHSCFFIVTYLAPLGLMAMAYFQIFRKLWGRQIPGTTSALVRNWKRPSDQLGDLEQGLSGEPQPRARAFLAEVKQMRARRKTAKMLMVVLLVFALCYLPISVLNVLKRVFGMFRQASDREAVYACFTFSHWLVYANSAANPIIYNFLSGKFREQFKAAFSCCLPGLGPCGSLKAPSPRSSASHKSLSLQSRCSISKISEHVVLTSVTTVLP
Nature of the series: Assay A: In vitro testing of OX1R potency: OX1R IP1 (HTRF, CHO-K1/hOX1 cells, Orexin A as agonist). To be noted: OX1R Kb at 0.5 nM Orexin A. The class given is cell-based.
Take `CCN(C(=O)c1cccc(C)c1-c1nnc(C)o1)[C@@H](C)COc1ccc(Cl)cn1` [Example 39]: the “OX2R Kb/OX1R Kb” value stood at 93.

With `CCN(C(=O)c1cc(F)ccc1-n1nccn1)[C@@H](C)COc1ncc(C(F)(F)F)cc1F` [Example 51], the “OX2R Kb/OX1R Kb” value turned out to be 259.

Consider `CCN(C(=O)c1ccccc1-c1cnnc(C)c1)[C@@H](C)COc1ccc(C(F)(F)F)cn1` [Example 84], for which the “OX2R Kb/OX1R Kb” value is on record as 150.

Turning to `CCN(C(=O)c1cccc(F)c1-c1nnc(C)o1)[C@@H](C)COc1ncc(C(F)(F)F)cc1F` [Example 61], the “OX2R Kb/OX1R Kb” value stood at 452.

For the molecule `CCN(C(=O)c1cccc(F)c1-c1nnc(C)o1)[C@@H](C)COc1ccc(Cl)cn1` [Example 36], the “OX2R Kb/OX1R Kb” value is 139.

Staying with this series, now noted: OX1R Kb at 50 nM Orexin A.
As for `CCN(C(=O)c1cccc(C)c1-c1nnc(C)o1)[C@@H](C)COc1ccc(Cl)cn1` [Example 39], the “OX2R Kb/OX1R Kb” value came out at 152.

Turning to `CCN(C(=O)c1cc(F)ccc1-n1nccn1)[C@@H](C)COc1ncc(C(F)(F)F)cc1F` [Example 51], the “OX2R Kb/OX1R Kb” value came out at 430.

As to `CCN(C(=O)c1ccc(OC)cc1-c1ncccn1)[C@@H](C)COc1ccc(C(F)(F)F)cn1` [Example 118], the “OX2R Kb/OX1R Kb” value turned out to be 2875.

Take `CCN(C(=O)c1cc(OC)ccc1-n1nccn1)[C@@H](C)COc1ccc(C(F)(F)F)cn1` [Example 15]: the “OX2R Kb/OX1R Kb” value came to 250.

As to `CCN(C(=O)c1ccc(Cl)cc1-n1nccn1)[C@@H](C)COc1ccc(Cl)cn1` [Example 45], the “OX2R Kb/OX1R Kb” value is on record as 59.

As to `CCN(C(=O)c1cccc(Cl)c1-n1nccn1)[C@@H](C)COc1ccc(C(F)(F)F)cn1` [Example 90], the “OX2R Kb/OX1R Kb” value came to 520.

The same series, now with this note: Orexin A 0.5 nM; read-out: OX1R Kb (Orexin A concentration used).
In the case of `CCN(C(=O)c1cccc(C)c1-c1nnc(C)o1)[C@@H](C)COc1ccc(Cl)cn1` [Example 39], the Kb turned out to be 0.88 nM.

As to `CCN(C(=O)c1cc(F)ccc1-n1nccn1)[C@@H](C)COc1ncc(C(F)(F)F)cc1F` [Example 51], the Kb came out at 0.73 nM.

As to `CCN(C(=O)c1ccccc1-c1cnnc(C)c1)[C@@H](C)COc1ccc(C(F)(F)F)cn1` [Example 84], the Kb came to 8.6 nM.

For the molecule `CCN(C(=O)c1cccc(F)c1-c1nnc(C)o1)[C@@H](C)COc1ncc(C(F)(F)F)cc1F` [Example 61], the Kb was determined as 3.27 nM.

In the case of `CCN(C(=O)c1cccc(F)c1-c1nnc(C)o1)[C@@H](C)COc1ccc(Cl)cn1` [Example 36], the Kb was determined as 3.9 nM.

Still in this series, the particulars now being: Orexin A 50 nM; read-out: OX1R Kb (Orexin A concentration used).
Take `CCN(C(=O)c1cccc(C)c1-c1nnc(C)o1)[C@@H](C)COc1ccc(Cl)cn1` [Example 39]: the Kb stood at 0.54 nM.

Consider `CCN(C(=O)c1cc(F)ccc1-n1nccn1)[C@@H](C)COc1ncc(C(F)(F)F)cc1F` [Example 51], for which the Kb is 0.44 nM.

Turning to `CCN(C(=O)c1ccc(OC)cc1-c1ncccn1)[C@@H](C)COc1ccc(C(F)(F)F)cn1` [Example 118], the Kb came out at 0.032 nM.

In the case of `CCN(C(=O)c1cc(OC)ccc1-n1nccn1)[C@@H](C)COc1ccc(C(F)(F)F)cn1` [Example 15], the Kb is 0.06 nM.

Regarding `CCN(C(=O)c1ccc(Cl)cc1-n1nccn1)[C@@H](C)COc1ccc(Cl)cn1` [Example 45], the Kb worked out at 0.354 nM.

Consider `CCN(C(=O)c1cccc(Cl)c1-n1nccn1)[C@@H](C)COc1ccc(C(F)(F)F)cn1` [Example 90], for which the Kb amounted to 0.025 nM.

Tested on in the next series: not listed separately
Nature of the series: Assay C: Metabolic stability in human liver microsomes (Human MST). The format is in vitro ADME. To be noted: pooled human liver microsomes, pH 7.6; human liver microsomes 1 mg/mL, compound 1 μM, 37° C., NADPH; read-out: Human MST t1/2. The procedure:
C. Assessment of Metabolic Stability in Human Liver Microsomes (Human MST)
The metabolic stability of the compounds according to the invention may be investigated as follows:
The metabolic degradation of the test compound is assayed at 37° C. with pooled human liver microsomes. The final incubation volume of 100 μL per time point contains TRIS buffer pH 7.6 at room temperature (0.1 M), MgCl2 (5 mM), microsomal protein (1 mg/mL) and the test compound at a final concentration of 1 μM. Following a short pre-incubation period at 37° C., the reactions are initiated by addition of beta-nicotinamide adenine dinucleotide phosphate, reduced form (NADPH, 1 mM), and terminated by transferring an aliquot into solvent after different time points. After centrifugation (10000 g, 5 min), an aliquot of the supernatant is assayed by LC-MS/MS for the amount of parent compound. The half-life (t1/2) is determined by the slope of the semi-logarithmic plot of the concentration-time profile.
Background: Liver microsomes are a subcellular fraction often used to study metabolism.
`CCN(C(=O)c1cccc(C)c1-c1nnc(C)o1)[C@@H](C)COc1ccc(Cl)cn1` [Example 39]: the half-life at 1 μM was determined as 23 min.

With `CCN(C(=O)c1cc(F)ccc1-n1nccn1)[C@@H](C)COc1ncc(C(F)(F)F)cc1F` [Example 51], the half-life at 1 μM was 36 min.

Turning to `CCN(C(=O)c1ccccc1-c1cnnc(C)c1)[C@@H](C)COc1ccc(C(F)(F)F)cn1` [Example 84], the half-life at 1 μM stood at 11 min.

In the case of `CCN(C(=O)c1ccc(OC)cc1-c1ncccn1)[C@@H](C)COc1ccc(C(F)(F)F)cn1` [Example 118], the half-life at 1 μM was 15 min.

Consider `CCN(C(=O)c1cc(OC)ccc1-n1nccn1)[C@@H](C)COc1ccc(C(F)(F)F)cn1` [Example 15], for which the half-life at 1 μM was found to be 16 min.

`CCN(C(=O)c1cccc(F)c1-c1nnc(C)o1)[C@@H](C)COc1ncc(C(F)(F)F)cc1F` [Example 61]: the half-life at 1 μM amounted to 26 min.

Consider `CCN(C(=O)c1cccc(F)c1-c1nnc(C)o1)[C@@H](C)COc1ccc(Cl)cn1` [Example 36], for which the half-life at 1 μM is 72 min.

As to `CCN(C(=O)c1ccc(Cl)cc1-n1nccn1)[C@@H](C)COc1ccc(Cl)cn1` [Example 45], the half-life at 1 μM came to 18 min.

For the molecule `CCN(C(=O)c1cccc(Cl)c1-n1nccn1)[C@@H](C)COc1ccc(C(F)(F)F)cn1` [Example 90], the half-life at 1 μM stood at 44 min.

These data come from patent US10787432B2, “N-[(pyridyloxy)propanyl]benzamides” (Boehringer Ingelheim International GmbH, priority 2016, dated 2020).
